Results: ChEMBL document CHEMBL5329183, “Naphthylthiazoles: a class of broad-spectrum antifungals” (RSC Med Chem, 2023)
In brackets after ≈: the same amount, converted by molar mass.

What was measured:
Format in all cases: functional
[1] = tested on: Candida albicans; assay: Antifungal activity against wild type Candida albicans SC5314 assessed as inhibition of fungal growth
[2] = tested on: Staphylococcus aureus; assay: Antibacterial activity against Methicillin-resistant Staphylococcus aureus USA300 assessed as inhibition of bacterial growth
[3] = tested on: Escherichia coli; assay: Antibacterial activity against wild type Escherichia coli BW25113 assessed as inhibition of bacterial growth
[4] = tested on: Escherichia coli; assay: Antibacterial activity against Escherichia coli JW55031 harboring tolC mutant assessed as inhibition of bacterial growth
[5] = tested on: Clostridioides difficile; assay: Antibacterial activity against Clostridium difficile ATCC BAA1870 assessed as inhibition of bacterial growth

Row | Compound | MIC [1] [µg/mL] | MIC [2] [µg/mL] | MIC [3] [µg/mL] | MIC [4] [µg/mL] | MIC [5] [µg/mL]
1 | Cc1nc(-c2ccc3ccccc3c2)sc1-c1nnc(N2CCC[C@H]2CO)o1 | > 64 | > 64 | > 64 | > 64 | > 64
2 | Cc1nc(-c2ccc3ccccc3c2)sc1-c1nnc(N2CCCCC2CN)o1 (stereo not given) | > 64 | > 64 | > 64 | > 64 | 32 (≈ 78.9 µM)
3 | Cc1nc(-c2ccc3ccccc3c2)sc1-c1nnc(N2CCC[C@H]2C(N)=O)o1 | > 64 | > 64 | > 64 | > 64 | > 64
4 | Cc1nc(-c2ccc3ccccc3c2)sc1-c1nnc(N[C@H]2CC[C@H](N)CC2)o1 | 64 (≈ 158 µM) | 64 (≈ 158 µM) | > 64 | > 64 | 64 (≈ 158 µM)
5 | Cc1nc(-c2ccc3ccccc3c2)sc1-c1nnc(N2CCC[C@@H]2C(N)=O)o1 | > 64 | > 64 | > 64 | > 64 | > 64
6 | Cc1nc(-c2ccc3ccccc3c2)sc1-c1nnc(N2CCC(N)C2)o1 (stereo not given) | 8 (≈ 21.2 µM) | > 64 | > 64 | > 64 | > 64
7 | CCCNc1nnc(-c2sc(-c3ccc4ccccc4c3)nc2C)o1 | > 64 | > 64 | > 64 | > 64 | > 64
8 | Cc1nc(-c2ccc3ccccc3c2)sc1-c1nnc(N2CCC[C@@H]2CO)o1 | > 64 | > 64 | > 64 | > 64 | 16 (≈ 40.8 µM)
9 | Cc1nc(-c2ccc3ccccc3c2)sc1-c1nnc(NCC(=N)N)o1 | 32 (≈ 87.8 µM) | > 64 | > 64 | > 64 | 64 (≈ 176 µM)
10 | Cc1nc(-c2ccc3ccccc3c2)sc1-c1nnc(N2CC[C@H](N(C)C)C2)o1 | 8 (≈ 19.7 µM) | > 64 | > 64 | > 64 | > 64
